Measurements published in ChEMBL document CHEMBL3046700, “Identification of novel inhibitors of HIV-1 integrase using pharmacophore-based virtual screening combined with molecular docking strategies” (Med Chem Res, 2013).
pIC50: −log10 of the molar value.

The molecules below were run against Human immunodeficiency virus type 1 integrase (Human immunodeficiency virus 1, UniProt Q7ZJM1) (assay: Inhibition of Human immunodeficiency virus 1 integrase strand transfer activity using [32P]5'end-labeled linear 21 mer as substrate incubated for 30 min prior to substrate addition measured after 1 hr).
Sequence of Human immunodeficiency virus type 1 integrase (Q7ZJM1 whole entry): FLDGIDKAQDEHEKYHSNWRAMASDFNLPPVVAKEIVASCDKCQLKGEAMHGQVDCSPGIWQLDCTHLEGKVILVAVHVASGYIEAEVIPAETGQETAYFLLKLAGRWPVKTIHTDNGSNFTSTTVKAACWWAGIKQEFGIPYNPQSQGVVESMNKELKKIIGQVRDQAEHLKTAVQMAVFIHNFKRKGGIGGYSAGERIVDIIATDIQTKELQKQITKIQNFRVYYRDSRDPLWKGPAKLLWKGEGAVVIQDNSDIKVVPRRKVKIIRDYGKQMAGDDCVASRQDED

Row | pIC50 | SMILES
1 | 5.13 | Cc1cc2nc3nc(N)nc(NS(=O)(=O)c4cc(C)c(Cl)cc4S)n3c2cc1C
2 | 5.37 | Cc1cc(S(=O)(=O)Nc2nnc3c4scc(C)c4ncn23)c(S)cc1Cl
3 | 5.00 | Cc1ccc(-n2ncnc2-c2nc3ccccc3nc2NS(=O)(=O)c2cc(C(=O)Nc3ccccc3)c(Cl)cc2S)cc1
4 | 6.05 | O=S(=O)(/C=C/c1ccc(O)c(O)c1O)CS(=O)(=O)/C=C/c1ccc(O)c(O)c1O
5 | 3.15 | O=C(Oc1ccc(/C=C/S(=O)(=O)CS(=O)(=O)/C=C/c2ccc(OC(=O)c3ccccc3)c(OC(=O)c3ccccc3)c2)cc1OC(=O)c1ccccc1)c1ccccc1
6 | 4.38 | Cc1cc2c(cc1Cl)SC(C(=O)c1ccc(F)cc1)=NS2(=O)=O
7 | 6.85 | CC(C)c1nc(C(=O)NCc2ccc(F)cc2)c(O)c(=O)n1C
8 | 4.85 | O=C1NC(=S)SC1NS(=O)(=O)c1ccc(/N=N/c2ncccn2)cc1 (stereo not given)
9 | 5.06 | NNS(=O)(=O)c1cccc(OCC(=O)O)c1
10 | 4.92 | COc1ccc(C(=O)C2=NS(=O)(=O)c3cc(C)c(Cl)cc3S2)cc1
